In US8466157B2, “Proteasome inhibitors having chymotrypsin-like activity” (University of South Florida, priority 2009, dated 2013):
Several values for one entry are separate records, joined by “and”; a condition that tells them apart may be missing. Equal entries are not always repeated. Where two headings read alike, the source gives them in different places.

Target: T1, chymotrypsin-like activity of the purified rabbit 20S proteasome (Oryctolagus cuniculus, UniProt G1T4Q9)
T1 sequence (G1T4Q9 1-263): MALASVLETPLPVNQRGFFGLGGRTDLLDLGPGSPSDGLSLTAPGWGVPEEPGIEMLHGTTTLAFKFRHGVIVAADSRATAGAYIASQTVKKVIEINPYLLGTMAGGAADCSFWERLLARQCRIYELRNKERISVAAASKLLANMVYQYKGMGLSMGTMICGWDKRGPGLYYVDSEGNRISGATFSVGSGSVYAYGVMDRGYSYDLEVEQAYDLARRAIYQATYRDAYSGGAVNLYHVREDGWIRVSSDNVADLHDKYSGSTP
Experiment: 20S proteasome inhibition assay, fluorogenic substrate Suc-Leu-Leu-Val-Tyr-AMC;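 note: enzyme and 20 µM substrate incubated 1 h at 37 °C in Tris-HCl buffer pH 7.6, fluorogenic read-out, inhibition calculated against vehicle control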
Format: biochemical
Settings: for proteasome inhibitory activity, SAR statement in words: chymotrypsin-like activity, compared with lead or analogue

[1] = individual determinations (runs M-1096, M-1098, M-1099, AK or dated), read-out: Chymotrypsin-like Activity IC50
[2] = mean of the individual determinations, read-out: Chymotrypsin-like Activity IC50 (μM), mean ± spread (n)
[3] = 30 μM, runs M-1096, M-1098, M-1099

Method: 20S Proteasome Inhibition Assay
In our work, we used chymotrypsin-like substrate Suc-Leu-Leu-Val-Tyr-AMC to test the proteasome inhibition activity of the synthesized compounds.
The assay was conducted by using a fluorogenic peptide as substrate to test synthesized compounds for inhibitory activity against the chymotrypsin-like activity of the purified rabbit 20S proteasome. Briefly, 70 ng of purified 20S proteasome was incubated with 20 μM Suc-Leu-Leu-Val-Tyr-AMC for 1 hour at 37° C. in 100 μl of assay buffer (50 mM Tris-HCl, pH 7.6) with or without inhibitors. […] The inhibitory activity of the compounds was calculated based on vehicle control.

Compound	IC50 [1]	also measured
O=C(CCSc1cc(NS(=O)(=O)c2cccs2)c2ccccc2c1O)NC1CC1 [HL4-100-3, N-cyclopropyl-3-(1-hydroxy-4-(thiophene-2-sulfonamido)naphthalen-2-ylthio)propanamide]	8.6 µM and 6 µM and > 10 µM	IC50 [2]: 7.3 µM
CCOC(=O)CSC1=C(SCC(=O)OCC)C(=O)c2ccccc2C1=O [YG1-017]	> 30 µM and 48 µM and > 100 µM	Chymotrypsin-like Activity Inhib at 100 μM (100 μM): 57% and 36%
CC(C)(C)OC(=O)COc1cc(NS(=O)(=O)c2cccs2)c2ccccc2c1O [YL2-025, tert-Butyl-2-(1-hydroxy-4-(thiophene-2-sulfonamido)naphthalen-2-yloxy)acetate]	> 10 µM	
N-(3-(1-methyl-1H-tetrazol-5-ylthio)-4-oxonaphthalen-1(4H)-ylidene)thiophene-2-sulfonamide [YG1-158-1]	2.46 µM and 7.24 µM and 7.9 µM and 9.8 µM and > 10 µM and 1.24 µM and 1.81 µM	IC50 [2]: 5.08 µM
O=S(=O)(Nc1cc(SCCO)c(O)c2ccccc12)c1cccs1 [YG1-087-2, N-(4-hydroxy-3-(2-hydroxyethylthio)naphthalen-1-yl)thiophene-2-sulfonamide]	> 10 µM	proteasome inhibitory activity, SAR statement in words: the inhibitory activity totally lost
CN(C)C(=O)CCSc1cc(NS(=O)(=O)c2cccs2)c2ccccc2c1O [HL4-100-1, 3-(1-hydroxy-4-(thiophene-2-sulfonamido)naphthalen-2-ylthio)-N,N-dimethylpropanamide]	> 10 µM	
O=C(O)CSc1ccc(NS(=O)(=O)c2cccs2)c2ccccc12 [YG3-007, 2-(4-(thiophene-2-sulfonamido)naphthalen-1-ylthio)acetic acid]	> 10 µM	
CCOC(=O)CSC1=CC(=O)c2ccccc2C1=O [YG1-059, Ethyl 2-(1,4-dioxo-1,4-dihydronaphthalen-2-ylthio)acetate]	> 100 µM	inhibition at 30 µM [3]: 49%
CCOC1=C/C(=N\S(=O)(=O)c2cccs2)c2ccccc2C1=O [YG1-122, N-(3-ethoxy-4-oxonaphthalen-1(4H)-ylidene)thiophene-2-sulfonamide]	> 10 µM	
O=C(O)CS(=O)(=O)c1cc(NS(=O)(=O)c2cccs2)c2ccccc2c1O [YG1-134, 2-(1-hydroxy-4-(thiophene-2-sulfonamido)naphthalen-2-ylsulfonyl)acetic acid]	> 10 µM	proteasome inhibitory activity, SAR statement in words: loss or reduction of the inhibitory activity
COC(=O)CCSC1=C/C(=N\S(=O)(=O)c2cccs2)c2ccccc2C1=O [YG1-112]	2.2 µM and 5.9 µM and 6.1 µM and > 10 µM (2×) and 6 µM and 3 µM	IC50 [2]: 4.64 µM
CNC(=O)CCSC1=C/C(=N\S(=O)(=O)c2cccs2)c2ccccc2C1=O [HL4-078-2, N-methyl-3-(1-oxo-4-(thiophen-2-ylsulfonylimino)-1,4-dihydronaphthalen-2-ylthio)propanamide]	8.1 µM and > 10 µM (2×)	
N-(3-(ethylthio)-4-hydroxynaphthalen-1-yl)thiophene-2-sulfonamide [YG2-087-1]	> 10 µM	
CCOC(=O)CSC1=C/C(=N\S(=O)(=O)c2ccc(-c3ccccc3)cc2)c2ccccc2C1=O [YG2-011]	> 10 µM	
CCOC(=O)CSc1cc(NS(=O)(=O)c2cccs2)c2ccccc2c1O [YG1-094-2]	2.67 µM and 9.65 µM and 9.5 µM	
O=S(=O)(Nc1cc(Br)c(O)c2ccccc12)c1cccs1 [YG1-034, N-(3-bromo-4-hydroxynaphthalen-1-yl)thiophene-2-sulfonamide]	> 30 µM and > 100 µM and 28 µM	
O=S(=O)(Nc1cc(Cl)c(O)c2ccccc12)c1cccs1 [YG1-012, N-(3-chloro-4-hydroxynaphthalen-1-yl)thiophene-2-sulfonamide]	> 30 µM and 45 µM and 36 µM	Chymotrypsin-like Activity Inhibition at 30 μM [3]: 41% and 45%; inhibition at 30 µM [3]: 33%; Chymotrypsin-like Activity Inhib at 100 μM (100 μM): 97%; inhibition at 100 µM (100 μM, read-out: Chymotrypsin-like Activity Inhib at 100 μM): 82%
Nc1ccc(SCC(=O)O)c2ccccc12 [YG3-005, 2-(4-aminonaphthalen-1-ylthio)acetic acid]	> 10 µM	
CC(C)(C)OC(=O)COc1ccc(NS(=O)(=O)c2cccs2)c2ccccc12 [YG2-080, tert-butyl 2-(4-(thiophene-2-sulfonamido)naphthalen-1-yloxy)acetate]	> 10 µM	
CCOC(=O)CSc1cc(NS(=O)(=O)c2cccs2)c2ccccc2c1O [9a, Ethyl 2-(1-hydroxy-4-(thiophene-2-sulfonamido)naphthalen-2-ylthio)acetate]		proteasome inhibitory activity, SAR statement in words: reduced compared to acid analogues
CCOC(=O)CSC1=C/C(=N\S(=O)(=O)Cc2ccc(Cl)cc2)c2ccccc2C1=O [YG2-019, Ethyl 2-(4-(4-chlorobenzylsulfonylimino)-1-oxo-1,4-dihydronaphthalen-2-ylthio)-acetate]	6.9 µM and 7.6 µM and > 10 µM (4×)	IC50 [2]: 7.25 µM
CC(C)(C)OC(=O)CC1C(=O)C(=O)c2ccccc2C1=O (stereo not drawn) [YL2-015 4th spot]	> 10 µM	

Compound	IC50 [1]	also measured
O=C(CCSC1=C/C(=N\S(=O)(=O)c2cccs2)c2ccccc2C1=O)NC1CC1 [HL4-078-3, N-cyclopropyl-3-(1-oxo-4-(thiophen-2-ylsulfonylimino)-1,4-dihydronaphthalen-2-ylthio)propanamide]	5.5 µM and 8.65 µM and > 10 µM (2×)	IC50 [2]: 8.05 µM
O=C(O)COc1ccc(NS(=O)(=O)c2cccs2)c2ccccc12 [YG2-083, 2-(4-(thiophene-2-sulfonamido)naphthalen-1-yloxy)acetic acid]	> 10 µM	
O=C1C(N2CCN(c3ccccn3)CC2)=C/C(=N\S(=O)(=O)c2cccs2)c2ccccc21 [YG1-130]	> 10 µM	
CC(C)(C)OC(=O)COC1=C/C(=N\S(=O)(=O)c2cccs2)c2ccccc2C1=O [YL2-023, tert-Butyl-2-(1-oxo-4-(thiophen-2-ylsulfonylimino)-1,4-dihydronaphthalen-2-yloxy)acetate]	> 10 µM	
O=C1C=C(O)C(=O)c2ccccc21 [S.M. of YL2-013, 2-hydroxynaphthalene-1,4-dione]	> 10 µM	
O=C(O)COc1cc(NS(=O)(=O)c2cccs2)c2ccccc2c1O [YL2-030, 2-(1-hydroxy-4-(thiophene-2-sulfonamido)naphthalen-2-yloxy)acetic acid]	> 10 µM	proteasome inhibitory activity, SAR statement in words: diminished the inhibitory activity
CN(C)C1=C/C(=N\S(=O)(=O)c2cccs2)c2ccccc2C1=O [YG1-125, N-(3-(dimethylamino)-4-oxonaphthalen-1(4H)-ylidene)thiophene-2-sulfonamide]	> 10 µM	
CCOC(=O)CSC1=C/C(=N\S(=O)(=O)c2cccs2)c2ccccc2C1=O [YG1-094]	1.6 µM and > 10 µM and 2.8 µM and 3 µM and 1.5 µM and 2.5 µM	IC50 [2]: 2.28 µM
O=C(O)CSc1cc(NS(=O)(=O)c2ccccc2)c2ccccc2c1O [YG1-117, 2-(1-hydroxy-4-(phenylsulfonamido)naphthalen-2-ylthio)acetic acid]	0.68 µM and 2.71 µM and 2.9 µM and 1.9 µM and 2.2 µM	IC50 (value quoted in running text / FIG. 11, read-out: IC50 against chymotrypsin-like proteasome activity): 2.08 µM
O=S(=O)(Nc1ccc(O)c2ccccc12)c1cccs1 [YG1-004, N-(4-hydroxynaphthalen-1-yl)thiophene-2-sulfonamide]	> 30 µM and > 100 µM and 35 µM	Chymotrypsin-like Activity Inhib at 100 μM (100 μM): 44% and 67%; proteasome inhibitory activity, SAR statement in words: loss of the inhibitory activity
O=C(O)CSc1cc(NS(=O)(=O)c2ccc(Cl)cc2)c2ccccc2c1O [YG2-034-1, 2-(4-(4-chlorophenylsulfonamido)-1-hydroxynaphthalen-2-ylthio)acetic acid]	> 10 µM and 3.44 µM and 4.15 µM	
O=C1CSc2cc(NS(=O)(=O)c3cccs3)c3ccccc3c2O1 [YG2-120, N-(2-oxo-2,3-dihydronaphtho[1,2-b][1,4]oxathiin-6-yl)thiophene-2-sulfonamide]	1.1 µM and 1.79 µM	
CCSc1cc(NS(=O)(=O)c2cccs2)c2ccccc2c1O [YG2-087-1, N-(3-(ethylthio)-4-hydroxynaphthalen-1-yl)thiophene-2-sulfonamide]		proteasome inhibitory activity, SAR statement in words: the inhibitory activity totally lost
CNC(=O)CCSc1cc(NS(=O)(=O)c2cccs2)c2ccccc2c1O [HL4-100-2, 3-(1-hydroxy-4-(thiophene-2-sulfonamido)naphthalen-2-ylthio)-N-methylpropanamide]	> 10 µM	
O=C1C(Cl)=C/C(=N\S(=O)(=O)c2cccs2)c2ccccc21 [YG2-133-2]	4.25 µM and 2.75 µM	
CCOC(=O)CS(=O)(=O)c1cc(NS(=O)(=O)c2cccs2)c2ccccc2c1O [YG1-133, Ethyl 2-(1-hydroxy-4-(thiophene-2-sulfonamido)naphthalen-2-ylsulfonyl)acetate]	8.2 µM and > 10 µM (2×)	
CCOC(=O)CSc1cc(NS(=O)(=O)c2ccc([N+](=O)[O-])cc2)c2ccccc2c1O [YG1-148F5, Ethyl 2-(1-hydroxy-4-(4-nitrophenylsulfonamido)naphthalen-2-ylthio)acetate]	0.82 µM and 4.55 µM and 5.36 µM	proteasome inhibitory activity, SAR statement in words: slightly enhanced the activity
COC(=O)CCSc1cc(NS(=O)(=O)c2cc(Cl)c(Cl)s2)c2ccccc2c1O [HL4-098-3, Methyl-3-(4-(4,5-dichlorothiophene-2-sulfonamido)-1-hydroxynaphthalen-2-ylthio)propanoate]	0.81 µM and 1.5 µM and 1.52 µM and 0.9 µM	
CCOC(=O)CSC1=C/C(=N\S(=O)(=O)c2ccc(C)cc2)c2ccccc2C1=O [YG2-014, Ethyl 2-(1-oxo-4-(tosylimino)-1,4-dihydronaphthalen-2-ylthio)acetate]	4 µM and 4.7 µM and 4.2 µM and > 10 µM	IC50 [2]: 4.3 µM
COC(=O)CCSc1cc(NS(=O)(=O)c2cccs2)c2ccccc2c1O [YG1-107]	2.28 µM and 2.26 µM and 6.6 µM and 3.9 µM and 7.1 µM and 7.7 µM	
O=C(O)CCCOc1ccc(NS(=O)(=O)c2cccs2)c2ccccc12 [YG2-094, 4-(4-(thiophene-2-sulfonamido)naphthalen-1-yloxy)butanoic acid]	> 10 µM	
